Laboratory results from patent US9440941B2, “Substituted chroman-6-yloxy-cycloalkanes and their use as pharmaceuticals” (SANOFI, priority 2013, dated 2016).
Where a name gives a salt, the structure may show the parent alone.

Target: T1, human NCX1 (Homo sapiens, UniProt P32418)
T1 construct: expressed in transfected cells
Assay: Inhibition of Ca2+ influx into cells (NCX1 reverse mode), FLIPR Fluo-4 assay
Assay type: cell-based
Conditions: inhibition of NCX1 in reverse mode (Ca2+ influx into cells); read-out: NCX1rv IC50
Text: The sodium/calcium exchanger NCX1 can transport calcium ions and sodium ions through the cell membrane. The transport is an exchange of Ca^2+ and Na^+ in two directions depending on membrane potential and ion gradients. At the first direction, named “forward mode” or “calcium export mode”, Ca^2+ is transported out of the cell and Na^+ is transported into the cell. At the other direction, named “reverse mode” or “calcium import mode”, the transport directions are vice versa. The effect of the compounds of the invention on NCX1 was determined in CHO cells stably expressing human NCX1 (gene symbol SLC8A1; cf. WO 2009/115238). The assay is based on the monitoring of intracellular Ca^2+ concentrations using a calcium-sensitive fluorescence dye which is detected by means of a FLIPR device (Fluorimetric Imaging Plate Reader, Molecular Devices).
Assay Technology—Reverse Mode
The assay is based on the monitoring of intracellular Ca^2+ concentrations using the calcium-sensitive dye Fluo-4. CHO cells expressing NCX1 were loaded with the dye by means of the acetoxymethyl ester Fluo-4 AM (Invitrogen, F14202), which is cleaved intracellularly by esterase activity to yield the charged species of free Fluo-4. After an preincubation period with the test compound, Gramicidine (Sigma, G5002) was added. Gramicidine is an ionophor for Na^+ ions mediating an increase of intracellular Na^+ ions. Consequently, intracellular Na^+ ions are exchanged against extracellular Ca^2+ ions (Ca^2+ influx, reverse mode). The intracellular elevation of Ca^2+ ions was detected by measuring the fluorescence of Fluo-4 at a wavelength of 520 nm by a FLIPR device.
Briefly, for the reverse mode transport assay 18000 cells per well were seeded into a 96 well microplate (Corning COSTAR 3904) and incubated overnight in culture medium (1× Nut Mix F12 (Ham) (Gibco, 21765-029); 10% (v/v) fetal calf serum (PAA Gold, A15-649); 450 μg/ml Geneticin (Gibco, 10131-027)). A total volume of 100 μl medium per well was used. For the preparation of the FLIPR assay, the culture medium was removed from the plates and 100 μl of dye solution (2 μM Fluo-4 AM; 0.02% (v/v) Pluronic F-127 (20%, Invitrogen, P3000MP); 0.1% (v/v) bovine albumin solution (30% (v/v), Sigma, A9205) in assay buffer (133.8 mM NaCl (Sigma, S5886); 4.7 mM KCl (Sigma, P3911); 1.25 mM MgCl2 (Merck, 1.05833.0250); 3.5 mM CaCl2 (Merck, 1.02083.0250); 5 mM glucose (Sigma, G7021); 10 mM Hepes (Sigma, H4034); 0.01% (v/v) Pluronic F-127 (5%, Sigma, P2443); 2.5 mM Probenecid (Maybridge, SB00915EB); pH 7.4)) were added into each well. The plates were incubated in the dark at room temperature for 80 min. After the incubation period, the dye solution was removed and the wells were washed with 100 μl of assay buffer. Then 80 μl of a solution of the test compound in assay buffer in different concentrations were added into the wells. The plates were incubated at 16° C. for 45 min. Meanwhile a 60 μM solution of Gramicidine in assay buffer (4° C.) was prepared and stored in the wells of a 96 well microplate (96 well microplate, polypropylene, U-shape (Greiner Bio-One, 650201)) at 4° C. until measurement was started. The fluorescence monitoring was performed at 240 measuring points with measurement intervals of 2 sec. After the fifth measuring point, 40 μl of the Gramicidine solution were added to each well of the assay plates to give a final Gramicidine concentration of 20 μM. For the determination of the IC50 values the minimal fluorescence value was subtracted from the maximal fluorescence value for all measuring points. The calculation of the IC50 values via the percentage inhibitions of Ca^2+ influx into cells (reverse mode) effected by the test compound was performed in Biost@t Speed 2.0.

Structure (SMILES) | IC50
Cc1cccc(C)c1C1CCc2cc(O[C@H]3CC[C@H](N)CC3)ccc2O1 (relative stereo) [compound 168, hydrochloride] | 4000 nM
Cc1cccc(C)c1C1CCc2cc(O[C@H]3CC[C@H](NCC4CCOC4)CC3)ccc2O1 (relative stereo) [compound 171] | 8300 nM
Cc1cccc(C)c1C1CCc2cc(O[C@H]3CC[C@H](NC(=O)CCn4cccn4)CC3)ccc2O1 (relative stereo) [compound 172] | 7100 nM
N[C@H]1CC[C@H](Oc2ccc3c(c2)CCC(c2ccccc2F)O3)CC1 (relative stereo) [compound 176, hydrochloride] | 1300 nM
Fc1ccccc1C1CCc2cc(O[C@H]3CC[C@H](NCC4CCOC4)CC3)ccc2O1 (relative stereo) [compound 178] | 1600 nM
O=C(CN1CCCC1)N[C@H]1CC[C@H](Oc2ccc3c(c2)CCC(c2ccccc2)O3)CC1 (relative stereo) [compound 182] | 300 nM
Cc1ccccc1C1CCc2cc(O[C@H]3CC[C@@H](CNC(=O)CN)CC3)ccc2O1 (relative stereo) [compound 185, hydrochloride] | 600 nM
Cc1ccc(F)cc1C1CCc2cc(O[C@H]3CC[C@H](NC(=O)CN)CC3)ccc2O1 (relative stereo) [compound 186] | 400 nM
Cc1n[nH]c(C)c1CCC(=O)N[C@H]1CC[C@H](Oc2ccc3c(c2)CCC(c2ccccc2F)O3)CC1 (relative stereo) [compound 234] | 100 nM
Cc1n[nH]c(C)c1CC(=O)N[C@H]1CC[C@H](Oc2ccc3c(c2)CCC(c2ccccc2F)O3)CC1 (relative stereo) [compound 235] | 1500 nM
O=C(Cn1cccn1)N[C@H]1CC[C@H](Oc2ccc3c(c2)CCC(c2ccccc2F)O3)CC1 (relative stereo) [compound 236] | 100 nM
O=C(CCn1cncn1)N[C@H]1CC[C@H](Oc2ccc3c(c2)CCC(c2ccccc2F)O3)CC1 (relative stereo) [compound 237] | 200 nM
CCC(C)(O)C(=O)N[C@H]1CC[C@H](Oc2ccc3c(c2)CCC(c2ccccc2F)O3)CC1 (relative stereo) [compound 238] | 100 nM
O=C(N[C@H]1CC[C@H](Oc2ccc3c(c2)CCC(c2ccccc2F)O3)CC1)C1CC1 (relative stereo) [compound 239] | 100 nM
O=C(CC(F)(F)F)N[C@H]1CC[C@H](Oc2ccc3c(c2)CCC(c2ccccc2F)O3)CC1 (relative stereo) [compound 240] | 100 nM
CSCC(=O)N[C@H]1CC[C@H](Oc2ccc3c(c2)CCC(c2ccccc2F)O3)CC1 (relative stereo) [compound 241] | 40 nM
Cc1noc(C)c1C(=O)N[C@H]1CC[C@H](Oc2ccc3c(c2)CCC(c2ccccc2F)O3)CC1 (relative stereo) [compound 242] | 500 nM
COCCC(=O)N[C@H]1CC[C@H](Oc2ccc3c(c2)CCC(c2ccccc2F)O3)CC1 (relative stereo) [compound 243] | 700 nM
Cc1nc(CC(=O)N[C@H]2CC[C@H](Oc3ccc4c(c3)CCC(c3ccccc3F)O4)CC2)c(C)s1 (relative stereo) [compound 245] | 300 nM
O=C(N[C@H]1CC[C@H](Oc2ccc3c(c2)CCC(c2ccccc2F)O3)CC1)c1ccncc1F (relative stereo) [compound 246] | 100 nM
Cc1nc(C(=O)N[C@H]2CC[C@H](Oc3ccc4c(c3)CCC(c3ccccc3F)O4)CC2)cs1 (relative stereo) [compound 247] | 300 nM
Cc1noc(CCC(=O)N[C@H]2CC[C@H](Oc3ccc4c(c3)CCC(c3ccccc3F)O4)CC2)n1 (relative stereo) [compound 248] | 200 nM

Structure (SMILES) | IC50
Cc1cc(CC(=O)N[C@H]2CC[C@H](Oc3ccc4c(c3)CCC(c3ccccc3F)O4)CC2)on1 (relative stereo) [compound 249] | 1100 nM
Cc1ccn(CC(=O)N[C@H]2CC[C@H](Oc3ccc4c(c3)CCC(c3ccccc3F)O4)CC2)n1 (relative stereo) [compound 250] | 800 nM
O=C(N[C@H]1CC[C@H](Oc2ccc3c(c2)CCC(c2ccccc2F)O3)CC1)C1CC1(F)F (relative stereo) [compound 251] | 5000 nM
O=C(CC1CC1)N[C@H]1CC[C@H](Oc2ccc3c(c2)CCC(c2ccccc2F)O3)CC1 (relative stereo) [compound 252] | 300 nM
Cc1nn(C)c(C)c1CCC(=O)N[C@H]1CC[C@H](Oc2ccc3c(c2)CCC(c2ccccc2F)O3)CC1 (relative stereo) [compound 254] | 300 nM
O=C(Cn1cncn1)N[C@H]1CC[C@H](Oc2ccc3c(c2)CCC(c2ccccc2F)O3)CC1 (relative stereo) [compound 256] | 100 nM
Cc1ccnn1CCC(=O)N[C@H]1CC[C@H](Oc2ccc3c(c2)CCC(c2ccccc2F)O3)CC1 (relative stereo) [compound 257] | 200 nM
Cc1c(CCC(=O)N[C@H]2CC[C@H](Oc3ccc4c(c3)CCC(c3ccccc3F)O4)CC2)cnn1C (relative stereo) [compound 258] | 200 nM
CS(=O)(=O)CCC(=O)N[C@H]1CC[C@H](Oc2ccc3c(c2)CCC(c2ccccc2F)O3)CC1 (relative stereo) [compound 259] | 100 nM
O=C(CSC(F)(F)F)N[C@H]1CC[C@H](Oc2ccc3c(c2)CCC(c2ccccc2F)O3)CC1 (relative stereo) [compound 260] | 400 nM
Cc1cc(C(=O)N[C@H]2CC[C@H](Oc3ccc4c(c3)CCC(c3ccccc3F)O4)CC2)n[nH]1 (relative stereo) [compound 261] | 300 nM
Cc1ccccc1C1CCc2cc(O[C@H]3CC[C@@H](C(=O)Nc4ccccn4)CC3)ccc2O1 (relative stereo) [compound 265] | 400 nM
Cc1ccccc1C1CCc2cc(O[C@H]3CC[C@H](C(=O)Nc4ccccn4)CC3)ccc2O1 (relative stereo) [compound 266] | 300 nM
Cc1ccccc1C1CCc2cc(O[C@H]3CC[C@H](NCC(=O)O)CC3)ccc2O1 (relative stereo) [compound 271] | 800 nM
O=C(CO)N[C@H]1CC[C@H](Oc2ccc3c(c2)CCC(c2ccccc2)O3)CC1 (relative stereo) [compound 278] | 200 nM
N[C@H]1C[C@@H](Oc2ccc3c(c2)CCC(c2ccccc2)O3)C1 (relative stereo) [compound 306, hydrochloride] | 1600 nM
NC1(Cc2ccccc2)CCC(Oc2ccc3c(c2)CCC(c2ccccc2)O3)CC1 (single isomer, unassigned) [compound 45, 1-Benzyl-4-(2-phenylchroman-6-yloxy)-cyclohexylamine, stereoisomeric mixture 1] | 22000 nM
NC1(Cc2ccccc2)CCC(Oc2ccc3c(c2)CCC(c2ccccc2)O3)CC1 (single isomer, unassigned) [compound 46, 1-Benzyl-4-(2-phenylchroman-6-yloxy)-cyclohexylamine, stereoisomeric mixture 2] | 11000 nM
O=C(CCn1cccn1)N[C@H]1CC[C@H](Oc2ccc3c(c2)CCC(c2ccccc2F)O3)CC1 (single isomer, unassigned) [compound 179] | 1200 nM
O=C(CCn1cccn1)N[C@H]1CC[C@H](Oc2ccc3c(c2)CCC(c2ccccc2F)O3)CC1 (single isomer, unassigned) [compound 253] | 300 nM
Cc1c(F)cccc1C1CCc2cc(OC3CCC(C(=O)NC4CCCCC4O)CC3)ccc2O1 (single isomer, unassigned) [compound 285] | 500 nM
Cc1c(F)cccc1C1CCc2cc(OC3CCC(C(=O)NC4CCCCC4O)CC3)ccc2O1 (single isomer, unassigned) [compound 286] | 500 nM
